PubChem BioAssay AID248 (DTP/NCI, 2004)
Values joined by “and” are separate entries in the source; they are usually repeats but may differ in a detail not shown here. Equal values may be shown once. Toxic doses and inconclusive results are not listed.

Test system: L1210 leukemia ip in BDF1 mice, survival T/C
Experiment: NCI In Vivo Anticancer Drug Screen. Data for tumor model L1210 Leukemia (intraperitoneal) in B6D2F1 (BDF1) mice
Settings: endpoint: mean survival time, higher = longer survival
Method in brief: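 Ratio derived from survival: compound-dosed mice over vehicle-dosed mice, all bearing a transplantable tumor.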

[1] = dose: 100.0 mg/kg/injection, schedule: Q04DX002 (ip), vehicle: Klucel (hydroxypropylcellulose) (HPC)
[2] = dose: 200.0 mg/kg/injection, schedule: Q04DX002 (ip), vehicle: Klucel (hydroxypropylcellulose) (HPC)
[3] = dose: 400.0 mg/kg/injection, schedule: Q04DX002 (ip), vehicle: Klucel (hydroxypropylcellulose) (HPC)
[4] = dose: 25.0 mg/kg/injection, schedule: Q01DX009 (ip), vehicle: Klucel (hydroxypropylcellulose) (HPC)
[5] = dose: 50.0 mg/kg/injection, schedule: Q01DX009 (ip), vehicle: Klucel (hydroxypropylcellulose) (HPC)
[6] = dose: 100.0 mg/kg/injection, schedule: Q01DX001 (ip), vehicle: saline
[7] = dose: 100.0 mg/kg/injection, schedule: Q01DX009 (ip), vehicle: Klucel (hydroxypropylcellulose) (HPC)
[8] = dose: 100.0 mg/kg/injection, schedule: Q04DX003 (ip), vehicle: Klucel (hydroxypropylcellulose) (HPC)
[9] = dose: 200.0 mg/kg/injection, schedule: Q01DX001 (ip), vehicle: saline
[10] = dose: 200.0 mg/kg/injection, schedule: Q01DX009 (ip), vehicle: Klucel (hydroxypropylcellulose) (HPC)
[11] = dose: 400.0 mg/kg/injection, schedule: Q01DX001 (ip), vehicle: saline
[12] = dose: 400.0 mg/kg/injection, schedule: Q04DX003 (ip), vehicle: Klucel (hydroxypropylcellulose) (HPC)
[13] = dose: 400.0 mg/kg/injection, schedule: Q01DX009 (ip), vehicle: Klucel (hydroxypropylcellulose) (HPC)
[14] = dose: 100.0 mg/kg/injection, schedule: Q01DX009 (ip), vehicle: saline
[15] = dose: 100.0 mg/kg/injection, schedule: Q04DX003 (ip), vehicle: saline
[16] = dose: 200.0 mg/kg/injection, schedule: Q01DX009 (ip), vehicle: saline
[17] = dose: 200.0 mg/kg/injection, schedule: Q04DX003 (ip), vehicle: saline
[18] = dose: 400.0 mg/kg/injection, schedule: Q01DX009 (ip), vehicle: saline
[19] = dose: 400.0 mg/kg/injection, schedule: Q04DX003 (ip), vehicle: saline
[20] = dose: 100.0 mg/kg/injection, schedule: Q04DX003 (ip), vehicle: saline with Tween-80
[21] = dose: 200.0 mg/kg/injection, schedule: Q04DX003 (ip), vehicle: saline with Tween-80
[22] = dose: 400.0 mg/kg/injection, schedule: Q04DX003 (ip), vehicle: saline with Tween-80

SMILES: O=C(/C=C/c1ccco1)c1ccc(O)cc1
- T/C [1]: 101 % of control
- T/C [2]: 90 % of control
- T/C [3]: 93 % of control

SMILES: Nc1nc(=S)c2[nH]c(N=Nc3ccc(S(=O)(=O)Nc4ccccn4)cc3)nc2[nH]1
- T/C (dose: 6.25 mg/kg/injection, schedule: Q01DX009 (ip), vehicle: Klucel (hydroxypropylcellulose) (HPC)): 170 % of control
- T/C [4]: 112 % of control
- T/C [5]: 100 % of control and 117 % of control and 124 % of control
- T/C (dose: 50.0 mg/kg/injection, schedule: Q04DX003 (ip), vehicle: Klucel (hydroxypropylcellulose) (HPC)): 106 % of control
- T/C [6]: 98 % of control
- T/C [7]: 101 % of control
- T/C [8]: 117 % of control
- T/C [9]: 104 % of control
- T/C [10]: 100 % of control
- T/C [11]: 104 % of control

SMILES: O=C(CCc1ccncc1)c1ccccc1
- T/C (dose: 50.0 mg/kg/injection, schedule: Q01DX001 (ip), vehicle: carboxymethylcellulose (CMC)): 114 % of control
- T/C (dose: 100.0 mg/kg/injection, schedule: Q01DX001 (ip), vehicle: carboxymethylcellulose (CMC)): 102 % of control
- T/C (dose: 200.0 mg/kg/injection, schedule: Q01DX001 (ip), vehicle: carboxymethylcellulose (CMC)): 102 % of control
- T/C (dose: 400.0 mg/kg/injection, schedule: Q01DX001 (ip), vehicle: carboxymethylcellulose (CMC)): 102 % of control

SMILES: CCOc1ccc(/C=N\N=C\c2ccc(OCC)cc2)cc1
- T/C [7]: 89 % of control
- T/C [8]: 93 % of control
- T/C [12]: 97 % of control

SMILES: Nc1nc(SCc2ccccc2)c2ncn(C3CCCO3)c2n1 (stereo not given)
- T/C (dose: 25.0 mg/kg/injection, schedule: Q01DX Z (ip), vehicle: methylcellulose (MC)): 101 % of control
- T/C (dose: 50.0 mg/kg/injection, schedule: Q01DX Z (ip), vehicle: methylcellulose (MC)): 120 % of control

SMILES: OC(CI)C(O)C(O)C(O)CI (stereo not given)
- T/C (dose: 50.0 mg/kg/injection, schedule: Q01DX009 (ip), vehicle: other): 101 % of control
- T/C (dose: 100.0 mg/kg/injection, schedule: Q01DX009 (ip), vehicle: other): 101 % of control and 106 % of control
- T/C (dose: 100.0 mg/kg/injection, schedule: Q## X024 (ip), vehicle: other): 103 % of control
- T/C (dose: 177.0 mg/kg/injection, schedule: Q01DX Z (ip), vehicle: methylcellulose (MC)): 92 % of control
- T/C (dose: 200.0 mg/kg/injection, schedule: Q01DX001 (ip), vehicle: other): 103 % of control and 101 % of control
- T/C (dose: 200.0 mg/kg/injection, schedule: Q01DX009 (ip), vehicle: other): 95 % of control and 111 % of control
- T/C (dose: 200.0 mg/kg/injection, schedule: Q## X003 (ip), vehicle: other): 109 % of control
- T/C (dose: 200.0 mg/kg/injection, schedule: Q## X024 (ip), vehicle: other): 111 % of control
- T/C (dose: 267.0 mg/kg/injection, schedule: Q01DX Z (ip), vehicle: methylcellulose (MC)): 108 % of control
- T/C (dose: 400.0 mg/kg/injection, schedule: Q01DX001 (ip), vehicle: other): 97 % of control and 111 % of control
- T/C (dose: 400.0 mg/kg/injection, schedule: Q01DX009 (ip), vehicle: other): 101 % of control
- T/C (dose: 400.0 mg/kg/injection, schedule: Q01DX Z (ip), vehicle: methylcellulose (MC)): 93 % of control
- T/C (dose: 400.0 mg/kg/injection, schedule: Q## X003 (ip), vehicle: other): 109 % of control
- T/C (dose: 400.0 mg/kg/injection, schedule: Q## X024 (ip), vehicle: other): 108 % of control
- T/C (dose: 600.0 mg/kg/injection, schedule: Q01DX Z (ip), vehicle: methylcellulose (MC)): 98 % of control
- T/C (dose: 800.0 mg/kg/injection, schedule: Q01DX001 (ip), vehicle: other): 105 % of control and 101 % of control
- T/C (dose: 800.0 mg/kg/injection, schedule: Q## X003 (ip), vehicle: other): 109 % of control
- T/C (dose: 800.0 mg/kg/injection, schedule: Q## X024 (ip), vehicle: other): 124 % of control

SMILES: CC(=O)Nc1ccc(C=Nc2ccccc2)cc1
- T/C [7]: 107 % of control
- T/C [8]: 96 % of control
- T/C [10]: 102 % of control
- T/C (dose: 200.0 mg/kg/injection, schedule: Q04DX003 (ip), vehicle: Klucel (hydroxypropylcellulose) (HPC)): 97 % of control
- T/C [13]: 111 % of control
- T/C [12]: 97 % of control

SMILES: CC(C)(C)c1cc([N+](C)(C)C)cc(C(C)(C)C)n1
- T/C (dose: 6.25 mg/kg/injection, schedule: Q01DX001 (ip), vehicle: saline): 97 % of control
- T/C (dose: 12.5 mg/kg/injection, schedule: Q01DX001 (ip), vehicle: saline): 112 % of control
- T/C (dose: 25.0 mg/kg/injection, schedule: Q01DX001 (ip), vehicle: saline): 105 % of control

SMILES: CCN(CC)CCCNC1=C(Cl)C(=O)c2ccccc2C1=O
- T/C (dose: 25.0 mg/kg/injection, schedule: Q01DX009 (ip), vehicle: saline with Tween-80): 95 % of control

SMILES: CCOc1ccc(NC(=S)NC(=O)c2cccc3ccccc23)cc1
- T/C [14]: 96 % of control
- T/C [15]: 92 % of control
- T/C [16]: 96 % of control
- T/C [17]: 100 % of control
- T/C [18]: 95 % of control
- T/C [19]: 92 % of control

SMILES: CC1C(C)(C)C12C=CC=C2 (stereo not given)
- T/C [6]: 102 % of control
- T/C [9]: 96 % of control
- T/C [11]: 96 % of control

SMILES: CC(=O)/C=C1\C(=O)Nc2ccccc21
- T/C [1]: 104 % of control
- T/C [2]: 89 % of control
- T/C [3]: 91 % of control

SMILES: CCC(=O)Oc1ccccc1C(=O)O
- T/C [4]: 98 % of control
- T/C [5]: 98 % of control
- T/C [7]: 103 % of control

SMILES: Cc1ccc(C(=O)CCCCl)c(C)c1
- T/C [20]: 99 % of control
- T/C [21]: 94 % of control
- T/C [22]: 96 % of control

SMILES: NC(=O)NC(O)C(Cl)(Cl)Cl (stereo not given)
- T/C [7]: 100 % of control
- T/C [10]: 100 % of control
- T/C [13]: 93 % of control

SMILES: FC(F)(F)C(F)(F)C1=NS1(F)C(F)(C(F)(F)F)C(F)(F)F (stereo not given)
- T/C (dose: 100.0 mg/kg/injection, schedule: Q01DX001 (ip), vehicle: acetone): 100 % of control
- T/C (dose: 200.0 mg/kg/injection, schedule: Q01DX001 (ip), vehicle: acetone): 97 % of control
- T/C (dose: 400.0 mg/kg/injection, schedule: Q01DX001 (ip), vehicle: acetone): 97 % of control

SMILES: CC(=O)Nc1ccc2c(ccc3cccc[n+]32)c1
- T/C (dose: 10.0 mg/kg/injection, schedule: Q01DX001 (ip), vehicle: saline): 93 % of control
- T/C (dose: 20.0 mg/kg/injection, schedule: Q01DX001 (ip), vehicle: saline): 98 % of control

SMILES: O=C(Nc1ncccn1)c1ccc(Cl)cc1Cl
- T/C (dose: 50.0 mg/kg/injection, schedule: Q04DX003 (ip), vehicle: saline with Tween-80): 93 % of control
- T/C (dose: 100.0 mg/kg/injection, schedule: Q01DX001 (ip), vehicle: saline with Tween-80): 103 % of control
- T/C (dose: 100.0 mg/kg/injection, schedule: Q01DX009 (ip), vehicle: saline with Tween-80): 102 % of control
- T/C (dose: 100.0 mg/kg/injection, schedule: Q04DX002 (ip), vehicle: saline with Tween-80): 93 % of control and 91 % of control
- T/C [20]: 94 % of control and 100 % of control
- T/C (dose: 200.0 mg/kg/injection, schedule: Q01DX001 (ip), vehicle: saline with Tween-80): 96 % of control
- T/C (dose: 200.0 mg/kg/injection, schedule: Q01DX009 (ip), vehicle: saline with Tween-80): 102 % of control
- T/C (dose: 200.0 mg/kg/injection, schedule: Q04DX002 (ip), vehicle: saline with Tween-80): 104 % of control
- T/C [21]: 91 % of control
- T/C (dose: 400.0 mg/kg/injection, schedule: Q01DX001 (ip), vehicle: saline with Tween-80): 96 % of control
- T/C (dose: 400.0 mg/kg/injection, schedule: Q01DX009 (ip), vehicle: saline with Tween-80): 100 % of control
- T/C (dose: 400.0 mg/kg/injection, schedule: Q04DX002 (ip), vehicle: saline with Tween-80): 105 % of control and 107 % of control
- T/C [22]: 103 % of control and 92 % of control

SMILES: CC(O)CN1CC(C)N(CC(C)O)CC1C (stereo not given)
- T/C [14]: 104 % of control
- T/C [15]: 100 % of control
- T/C [16]: 102 % of control
- T/C [17]: 86 % of control
- T/C [18]: 98 % of control
- T/C [19]: 88 % of control
